Read-outs that look alike come from different tables or passages of the source.

Results on 15 compounds are retold here after patent publication US4478833A, “Trisubstituted pyrimido[5,4-d]pyrimidines and salts thereof” (Dr. Karl Thomae Gesellschaft mit beschrankter Haftung, priority 1980, dated 1984).

The subject of series [1] is thrombocyte aggregation (platelet-rich plasma of healthy test persons). The experiment in a line: Collagen-induced thrombocyte (platelet) aggregation in platelet-rich plasma, method of Born and Cross. Type of series: cell-based, human. The following applies: sodium citrate, 10 minutes incubation at 37° C., read-out: EC50 (50% change in optical density, inhibition of collagen-induced aggregation). As to the method: Thrombocyte aggregation was measured according to the method of Born and Cross [J. Physiol. 170, 397 (1964)]in platelet-rich plasma of healthy test persons. To inhibit coagulation, the blood was mixed with sodium citrate in a volume ration of 1:10.
After addition of the aggregation-inducing substance, the rate of decrease in optical density of the platelet suspension is measured photometrically and recorded. The rate of aggregation was determined from the angle of inclination of the density curve. The point on the curve at which there was the greatest translucence served for calculating the optical density.
The quantity of collagen was chosen as small as possible, but sufficient so that an irreversible reaction was obtained. Commercial collagen of Hormonchemie, Munich, was used. Before the collagen was added, the plasma was incubated for 10 minutes with the test substance at 37° C.
An EC50 corresponding to a 50% change in the optical density with respect to aggregation inhibition was calculated graphically from the measurement values obtained.

The nature of series [2]: Acute toxicity in mice after oral administration. Type of series: in vivo. As to conditions: mouse, in vivo, po, dose of 250 mg/kg, observation time 14 days. The protocol: (§1) The acute toxicity of the test compounds was determined on groups of 6 to 10 mice after oral administration of a dose of 250 mg/kg (observation time: 14 days). For this purpose, the substances were suspended in 2% methyl cellulose, some water was subsequently added and the test substance was administered to the conscious animals by esophageal tube.

Series [3] deals with mice. The experiment in a line: Acute toxicity in mice after oral administration. Type of series: in vivo. The following applies: 250 mg/kg p.o., observation time 14 days. The protocol:
as §1

Take `CCCSc1ncnc2c(N3CC[S+]([O-])CC3)nc(NCCO)nc12` [A, 2-(2-Hydroxyethyl-amino)-4-(1-oxido-thiomorpholino)-8-propylthio-pyrimido[5,4-d]pyrimidine]: the 50% effective concentration (EC50) in series [1] (Homo sapiens, 10 min) worked out at 310 nM. Besides, the LD50 at 336 h in series [2] was more than 250 mg/kg. Also, the “animals died (out of animals tested)” value in series [3] is listed as 0 out of 6.

For `[O-][S+]1CCN(c2nc(NCCO)nc3c(SC4CCCCC4)ncnc23)CC1` [B, 8-Cyclohexylthio-2-(2-hydroxyethyl-amino)-4-(1-oxido-thiomorpholino)-pyrimido[5,4-d]pyrimidine], in series [1] (Homo sapiens, 10 min), the concentration giving a half-maximal response (EC50) worked out at 48 nM. In series [2], this compound returned an LD50 at 336 h of more than 250 mg/kg. Further, the “animals died (out of animals tested)” value in series [3] was 0 out of 10.

For the compound `[O-][S+]1CCN(c2nc(NCCO)nc3c(SCc4ccccc4)ncnc23)CC1` [C, 8-Benzylthio-2-(2-hydroxyethyl-amino)-4-(1-oxido-thiomorpholino)-pyrimido[5,4-d]pyrimidine], the concentration for a half-maximal effect (EC50) in series [1] (Homo sapiens, 10 min) came out at 21 nM. The compound also had an LD50 at 336 h in series [2] of more than 250 mg/kg. In series [3], the “animals died (out of animals tested)” value is on record as 0 out of 10.

As to `COCCN(CCO)c1nc(N2CC[S+]([O-])CC2)c2ncnc(SCc3ccccc3)c2n1` [Compound E, 8-Benzylthio-2-[N-(2-hydroxy-ethyl)-N-(2-methoxyethyl)-amino]-4-(1-oxido-thiomorpholino)-pyrimido[5,4-d]pyrimidine], in series [1] (Homo sapiens, 10 min), the EC50 was 52 nM. The LD50 at 336 h in series [2] is more than 250 mg/kg. In addition, the “animals died (out of animals tested)” value in series [3] was 0 out of 10.

Consider `[O-][S+]1CCN(c2nc(N(CCO)CCO)nc3c(SCc4ccccc4)ncnc23)CC1` [D, 8-Benzylthio-2-diethanolamino-4-(1-oxido-thiomorpholino)pyrimido[5,4-d]pyrimidine], for which the EC50 in series [1] (Homo sapiens, 10 min) is 62 nM. Besides, the LD50 at 336 h in series [2] was more than 250 mg/kg. Besides, in series [3], the “animals died (out of animals tested)” value is listed as 0 out of 10.

As to `CSc1ccc(C(C)Sc2ncnc3c(N4CC[S+]([O-])CC4)nc(NCCO)nc23)cc1` (stereo not drawn) [F, 2-(2-Hydroxyethyl-amino)-8-(α-methyl-4-methylthiobenzylthio)-4-(1-oxido-thiomorpholino)-pyrimido[5,4-d]pyrimidine], the EC50 in series [1] (Homo sapiens, 10 min) turned out to be 29 nM. The compound further displayed a 50% lethal dose (LD50) at 336 h in series [2] of more than 250 mg/kg. Moreover, the “animals died (out of animals tested)” value in series [3] is 0 out of 6.

On to `[O-][S+]1CCN(c2nc(NCCO)nc3c(SCc4ccco4)ncnc23)CC1` [G, 8-Furfurylthio-2-(2-hydroxyethyl-amino)-4-(1-oxidothiomorpholino)-pyrimido[5,4-d]pyrimidine], for which, in series [1] (Homo sapiens, 10 min), the 50% effective concentration (EC50) stood at 52 nM. This compound also gave a 50% lethal dose (LD50) at 336 h in series [2] of more than 250 mg/kg. For the same compound, the “animals died (out of animals tested)” value in series [3] is listed as 0 out of 6.

In the case of `CCCCN(CC)c1ncnc2c(N3CC[S+]([O-])CC3)nc(NCCO)nc12` [H, 8-(N-Ethyl-butylamino)-2-(2-hydroxyethyl-amino)-4-(1-oxidothiomorpholino)-pyrimido[5,4-d]pyrimidine], the EC50 in series [1] (Homo sapiens, 10 min) was found to be 300 nM. In series [2], the 50% lethal dose (LD50) at 336 h was more than 250 mg/kg. Also, the “animals died (out of animals tested)” value in series [3] was 0 out of 6.

For the compound `CC(Nc1ncnc2c(N3CC[S+]([O-])CC3)nc(NCCO)nc12)c1ccccc1` [I, 2-(2-Hydroxyethyl-amino)-4-(1-oxido-thiomorpholino)-8-(L-1-phenylethyl-amino)-pyrimido[5,4-d]pyrimidine], in series [1], the EC50 turned out to be 28 nM.

With `[O-][S+]1CCN(c2nc(NCCO)nc3c(NCc4ccc(Cl)cc4)ncnc23)CC1` [K, 8-(4-Chlorobenzyl-amino)-2-(2-hydroxyethyl-amino)-4-(1-oxido-thiomorpholino)-pyrimido[5,4-d]pyrimidine], the EC50 in series [1] (Homo sapiens, 10 min) is 280 nM. In addition, in series [2], the LD50 at 336 h is more than 250 mg/kg. Also, the “animals died (out of animals tested)” value in series [3] is given as 0 out of 10.

Take `[O-][S+]1CCN(c2nc(N(CCO)CCO)nc3c(N4CCCCC4)ncnc23)CC1` [L, 2-Diethanolamino-4-(1-oxido-thiomorpholino)-8-piperidino-pyrimido[5,4-d]pyrimidine]: the EC50 in series [1] (Homo sapiens, 10 min) worked out at 690 nM. Also, in series [2], the median lethal dose (LD50) at 336 h was more than 250 mg/kg. The “animals died (out of animals tested)” value in series [3] is 0 out of 10.

On to `CC(C)CCOc1ncnc2c(N3CC[S+]([O-])CC3)nc(N(CCO)CCO)nc12` [M, 2-Diethanolamino-8-isopentoxy-4-(1-oxido-thiomorpholino)-pyrimido[5,4-d]pyrimidine], for which, in series [1] (Homo sapiens, 10 min), the EC50 was determined as 460 nM. In series [2], this compound registered an LD50 at 336 h of more than 250 mg/kg. Besides, the “animals died (out of animals tested)” value in series [3] is 0 out of 6.

Turning to `[O-][S+]1CCN(c2nc(N(CCO)CCO)nc3c(OCc4ccccc4)ncnc23)CC1` [N, 8-Benzyloxy-2-diethanolamino-4-(1-oxido-thiomorpholino)-pyrimido[5,4-d]pyrimidine], the concentration for a half-maximal effect (EC50) in series [1] (Homo sapiens, 10 min) came out at 230 nM. This compound also showed an LD50 at 336 h in series [2] of more than 250 mg/kg. Also, the “animals died (out of animals tested)” value in series [3] was 0 out of 10.

For `COCCN(CCO)c1nc(N2CC[S+]([O-])CC2)c2ncnc(OCc3ccccc3)c2n1` [O, 8-Benzyloxy-2-[N-(2-hydroxy-ethyl)-N-(2-methoxy-ethyl)amino]-4-(1-oxido-thiomorpholino)-pyrimido[5,4-d]pyrimidine], the EC50 in series [1] (Homo sapiens, 10 min) came to 300 nM. This compound also displayed a 50% lethal dose (LD50) at 336 h in series [2] of more than 250 mg/kg. For the same compound, in series [3], the “animals died (out of animals tested)” value is given as 0 out of 6.

For `[O-][S+]1CCN(c2nc(N(CCO)CCO)nc3c(OCCCc4ccccc4)ncnc23)CC1` [P, 2-Diethanolamino-4-(1-oxido-thiomorpholino)-8-(3-phenylpropoxy)-pyrimido[5,4-d]pyrimidine], the EC50 in series [1] (Homo sapiens, 10 min) stood at 360 nM. Besides, the LD50 at 336 h in series [2] was more than 250 mg/kg. Further, in series [3], the “animals died (out of animals tested)” value is reported as 0 out of 6.

Broadly, the EC50 is the midpoint of the concentration-response curve. As a reminder, the LD50 is the dose at which mortality reaches 50%. High values mean a less toxic substance, low ones a more toxic substance.
